According to patent publication US11753622B2, “Medium supplement to increase the efficiency of oocyte maturation and embryo culture in vitro” (The Curators of the University of Missouri, priority 2016, dated 2023):
Marks after values point to notes of the source that are not given here.

Assays:
[1] = test system: oocyte meiotic maturation; assay: Kinase inhibitors in FGF2, LIF and IGF-1 supplemented medium, oocyte meiotic maturation; type: cell-based, porcine; settings: PD173074 10 μM, JAK inhibitor I 6 μM, OSI-906 10 μM, PD0325901 10 μM
Excerpt: FIG. 6. Supplementation of FGF2, LIF and IGF-1 (FLI) regulates the changes of MAPK1/3 activation in cumulus cells (CCs) during IVM. […] Each CC sample was pooled from 50 cumulus oocyte complexes (COCs). This experiment was replicated four times. Asterisk denotes a significant difference between control and treatment, P<0.05. […] The experiments were replicated four times with 1208 oocytes. Different letters denote significant differences, P<0.05.

[2] = test system: porcine oocytes; assay: Porcine oocyte in vitro maturation (IVM) in cytokine-supplemented medium, then IVF and culture to blastocyst; type: cell-based; settings: for efficiency of producing nuclear matured (MII) oocytes / oocyte developmental competence (ability of zygotes to form blastocysts after IVF): single cytokine in IVM medium; for efficiency of producing nuclear matured (MII) oocytes: 42 hr, versus control; for oocyte developmental competence (ability of zygotes to form blastocysts after IVF): 6 days culture
Procedure: The individual effects of FGF2, LIF, and IGF-1 on maturation of oocytes derived from pre-pubertal pre-pubertal gilts after commercial slaughter were examined after each had been added to an otherwise standard, chemically-defined medium comprised of TCM 199 supplemented with 10 ng/ml EGF, 0.5 μg/ml LH, 0.5 μg/ml FSH, 3.05 mM glucose, 0.91 mM sodium pyruvate, 0.57 mM cysteine, 10 ng/mL gentamicin, and 0.1% polyvinyl alcohol (PVA). After 42 hr in the oocyte maturation medium with the single cytokine addition, oocytes were in vitro fertilized and the resulting zygotes were cultured under standard in vitro culture conditions for 6 days. […] (FIG. 2). Optimal concentrations of FGF2 (40 ng/ml) and LIF (20 ng/ml) were added in combination to the standard IVM medium. The combination of FGF2 and LIF improved nuclear maturation beyond that achieved with the single factors in Example 1 (Table 1). […] The effects of adding the IGF-1 at the optimal concentration of 20 ng/ml in combination with the other two cytokines to the IVM medium was then examined. The combination of all three cytokines (FGF2, LIF, and IGF-1) increased oocyte nuclear maturation to 89%, as compared to 55% in controls (FIG. 5 and Table 2, column 4). After IVF, zygotes from oocytes cultured in medium comprising FGF2, LIF, and IGF-1 advanced to the blastocyst stage more efficiently than controls (49.7% versus 38%). […] Oocytes derived from medium comprising FGF2, LIF, and IGF-1 also provided improved production of blastocysts following somatic cell nuclear transfer (SCNT), which requires removal of nuclear material from the egg followed by fusion of the enucleated oocyte with a somatic donor cell (FIG. 5). [table]

[3] = Table 1, after IVF, means ± SEM
[4] = Table 1, porcine IVM medium, FGF2 40 ng/ml, LIF 20 ng/ml, means ± SEM
[5] = Table 2, IVF embryos cultured in MU1-PZM six days, means ± SEM

| Compound | oocyte meiotic maturation [1] | efficiency of producing nuclear matured (MII) oocytes [2] | oocyte developmental competence (ability of zygotes to form blastocysts after IVF) [2] | other results |
| --- | --- | --- | --- | --- |
| C[C@]1(O)C[C@@H](c2nc(-c3ccc4ccc(-c5ccccc5)nc4c3)c3c(N)nccn32)C1 [OSI-906] | more moderate declines |  |  |  |
| CCN(CC)CCCCNc1ncc2cc(-c3cc(OC)cc(OC)c3)c(NC(=O)NC(C)(C)C)nc2n1 [PD173074] | more moderate declines |  |  |  |
| O=C(NOC[C@H](O)CO)c1ccc(F)c(F)c1Nc1ccc(I)cc1F [PD0325901] | almost complete block of meiotic maturation |  |  |  |
| JAK inhibitor I | more moderate declines |  |  |  |
| fibroblast growth factor 2 [FGF2] |  | improved | none of the cytokines improved | Blastocysts/Oocyte (%) [2, 3]: 25.6 ± 3.6^ab %; Blastocysts/Zygote (%) [2, 3]: 35.1 ± 4.9^a %; Nuclear Maturation (%) [2, 4]: 73.2 ± 3.4^a % |
| insulin-like growth factor 1 [IGF-1] |  | improved | none of the cytokines improved | Blastocysts/Oocyte (%) [2, 5]: 33.6 ± 5.5^b %; Blastocysts/Zygote (%) [2, 5]: 44.7 ± 6.7^ab %; Nuclear Maturation (%) ([2]; Table 2, TCM-199 maturation medium, FGF2 40, LIF 20, IGF-1 20 ng/ml, means ± SEM): 74.8 ± 3.6^b %; Total blastocyst cell number ([2]; Table 2, day 6 blastocysts, means ± SEM): 34.7 ± 7.8^b |
| leukemia inhibitory factor [LIF] |  | improved | none of the cytokines improved | Blastocysts/Oocyte (%) [2, 3]: 19.6 ± 3.6^ab %; Blastocysts/Zygote (%) [2, 3]: 25.4 ± 4.0^b %; Nuclear Maturation (%) [2, 4]: 75.7 ± 3.1^a % |
